Laboratory results reported in patent US20240358679A1, “PHARMACEUTICAL AND FOOD COMPOSITIONS FOR THE PREVENTION, ALLEVIATION, OR TREATMENT OF INFLAMMATORY DISEASES COMPRISING 1-ALKYL-5-ARYLIDENE-2-SELENOXOIMIDAZOLIDIN-4-ONE AND ITS DERIVATIVES” (priority 2022, published 2024).

Columns and labels:
Type in all cases: cell-based
SH-SY5Y cell line [1] = experiment: Cell viability (MTT assay); conditions: compound 0.5 μM; for cell viability after MPP+: MPP+ (2 mM) 24 hours; for cell viability after rotenone: rotenone (2 μM) 24 hours
Experimental: The treatment of cell lines with the toxic substances MPP+ or rotenone induces cytotoxicity due to various inflammatory and immune response abnormalities. The viability of the cells under these conditions can be measured using the MTT assay.
Specifically, the SH-SY5Y cell line was treated with 0.5 μM of Compound 1aaa (Compound 1), 1aca (Compound 24), 1ace (Compound 27), 1ahe (Compound 44) or 1aje (Compound 62) and then with MPP+ (2 mM) or rotenone (2 μM) for 24 hours. Cell viability in the case of being treated with each compound is illustrated in FIGS. 4 and 5.

SH-SY5Y cell line [2] = experiment: Inhibition of reactive oxygen species generation (CM-H2DCFDA fluorescence); conditions: compound 10 μM
Experimental: It is known that the administration of MPP+ or rotenone to cell lines results in the generation of reactive oxygen species (ROS) due to mitochondrial inhibition, the activation of NOX enzymes and the like. The excessively generated ROS can induce various inflammatory responses through multiple pathways. The ROS generated in this process react with the CM-H2DCFDA reagent to produce fluorescence, thereby allowing the indirect quantification of ROS.
Specifically, the SH-SY5Y cell line was treated with Compound 1aaa (Compound 1, 10 μM), apocynin (5 μM), or allopurinol (50 μM), and then with MPP+ (2 mM) or rotenone (2 μM) for 24 hours. The effect of each compound to inhibit the generation of reactive oxygen species is illustrated in FIGS. 2 and 3 as a relative percentage to that of the control group.

Nrf-2 = Nrf-2 induction, Western blot of nuclear fraction; conditions: SH-SY5Y, compound 10 μM, 24 hours, increase
Experimental: When oxidative stress caused by reactive oxygen species increases in cells, the synthesis of antioxidants increases in response to this. One of the transcription factors mediating this antioxidant response is Nrf-2. As the transcription factor Nrf-2 enters the nucleus and the expression of genes related to antioxidation increases, the antioxidant capacity of cells increases,
Specifically, the SH-SY5Y cell line was exposed to Compound 1aaa (Compound 1, 10 μM) for 24 hours and then the cells were taken. Thereafter, the nuclear fraction was extracted, then Western blotting was performed to analyze the amount of Nrf-2 in the nucleus, and the results are illustrated in FIG. 6.

BV2 cell lines = experiment: Anti-inflammatory activity: morphological changes of LPS-treated BV2 cells; conditions: compound 0.1, 1, 10 μg/ml for 2 hours, then LPS (10 μg/ml), 24 hours
Experimental: (§1) To evaluate the anti-inflammatory activity of the compounds of the present invention, the morphological changes related to inflammation in cells and the suppression of the expression of inflammatory proteins (IL-1R and COX2) were assessed.
(§2) Specifically, BV2 cell lines were treated with compound 1aaa (0.1, 1, 10 μg/ml) for 2 hours, followed by treatment with LPS (10 μg/ml), and then cultured for 24 hours. Additionally, Western blot analysis was performed to analyze the expression of inflammatory proteins, and the results are shown in FIGS. 8 and 9.

IL-1β = experiment: Anti-inflammatory activity: Western blot of IL-1β expression in LPS-treated BV2 cells; conditions: BV2, compound 0.1, 1, 10 μg/ml, LPS (10 μg/ml), 24 hours
Experimental: as §1, §2

COX2 = experiment: Anti-inflammatory activity: Western blot of COX2 expression in LPS-treated BV2 cells; conditions: BV2, compound 0.1, 1, 10 μg/ml, LPS (10 μg/ml), 24 hours
Experimental: as §1, §2

Structure (SMILES)	cell viability after MPP+ (SH-SY5Y cell line [1])	cell viability after rotenone (SH-SY5Y cell line [1])	generation of reactive oxygen species after MPP+ (SH-SY5Y cell line [2]; MPP+ (2 mM) 24 hours)	generation of reactive oxygen species after rotenone (SH-SY5Y cell line [2]; rotenone (2 μM) 24 hours)	amount of Nrf-2 in the nucleus (Nrf-2)	activation of BV2 macrophages (morphology) (BV2 cell lines)	expression of IL-1β (IL-1β)	expression of COX2 (COX2)
CCc1ccc(N2C(=O)/C(=C\c3cc(O)cc(O)c3)N(C)C2=[Se])cc1 [Compound 27, 5-(3,5-dihydroxybenzylidene)-3-(4-ethylphenyl)-1-methyl-2-selenoxoimidazolidin-4-one]	improve cell viability	improve cell viability	–	–	–	–	–	–
CCc1ccc(N2C(=O)/C(=C\c3ccc(O)cc3O)N(C)C2=[Se])cc1 [Compound 24, 5-(2,4-dihydroxybenzylidene)-3-(4-ethylphenyl)-1-methyl-2-selenoxoimidazolidin-4-one]	improve cell viability	improve cell viability	–	–	–	–	–	–
CN1C(=[Se])N(c2ccccc2)C(=O)/C1=C\c1ccc(O)cc1O [Compound 1, 5-(2,4-dihydroxybenzylidene)-1-methyl-3-phenyl-2-selenoxoimidazolidin-4-one]	improve cell viability	improve cell viability	effectively inhibits	effectively inhibits	about 1.5 times	inhibited the activation of BV2 macrophages in a dose-dependent manner	significantly suppressed	significantly suppressed
CN1C(=[Se])N(CCc2ccccc2)C(=O)/C1=C\c1cc(O)cc(O)c1 [Compound 44, 5-(3,5-dihydroxybenzylidene)-1-methyl-3-phenethyl-2-selenoxoimidazolidin-4-one]	improve cell viability	improve cell viability	–	–	–	–	–	–
CCCCCCN1C(=O)/C(=C\c2cc(O)cc(O)c2)N(C)C1=[Se] [Compound 62, 5-(3,5-dihydroxybenzylidene)-3-hexyl-1-methyl-2-selenoxoimidazolidin-4-one]	improve cell viability	improve cell viability	–	–	–	–	–	–
